Assay results taken from patent US20240285553A1, “METHODS TO MODULATE MITOPHAGY WITH SREBP SIGNALING PATHWAY ACTIVATORS” (THE TRUSTEES OF INDIANA UNIVERSITY, priority 2021, published 2024).
“Also recorded” adds a separate entry of the source.

How the values were obtained:
PAEC / ECs = assay: Immunofluorescence microscopy of Tom20 and lysosomal marker LAMP1 (mitophagy); type: cell-based, human; settings: for mitophagy by immunofluorescence (Tom20/Lamp1): ECs
Text: Immunofluorescence Microscopy. Cells were fixed with 4% Formaldehyde (Electron Microscopy Sciences, #C993M24) and permeabilized in the presence of 0.1% Triton X-100 (Sigma). Full-length SREBP1 was stained using mouse monoclonal antibody from Santa Cruz Biotechnology (Cat #sc-365513). Whereas nuclear SREBP1 was detected using antibody from Novus biological (Cat #NB100-2215). […] Tom20 and LAMP1 antibodies were purchased from Cell Signaling (Cat #42406S and 15665S, respectively). Images were captured on an inverted fluorescent microscope (Leica).
(§1) First, degradation of a mitochondrial marker (TOM20) was evaluated as a bio-chemical marker of mitophagy induction.
Fixed cells were stained with Tom20 and Lamp1 and the fluorescence images were captured on a fluorescence microscope.

SREBP1 [1] = assay: Western blot of SREBP1, SCD and NCEH1 (SREBP1 activation); type: cell-based, human; settings: for SCD (SREBP1 target) levels / SREBP1 levels (non-cleaved; decrease indicates cleavage and activation): ECs / PAEC; for SCD (SREBP1 target) levels / SREBP1 levels (non-cleaved; decrease indicates cleavage and activation) / NCEH1 levels: western blot
Text: Western blot. Cell lysates were resolved on a SDS PAGE pre-cast gel (Invitrogen) and resolved proteins were transferred on to a PVDF membrane for further detection of proteins using specific antibodies. Antibodies for SREBP1 were purchased from Santa Cruz Biotechnology (Cat #sc-365513) and Novus biological (Cat #NB100-2215). SCD antibody was purchased from Santa Cruz Biotechnology (Cat #sc-58420). Tom20 and LAMP1 antibodies were purchased from Cell Signaling (Cat #42406S and 15665S, respectively). […]

ECs = assay: Transmission electron microscopy for mitophagy; type: cell-based, human; settings: 10 uM propranolol, 10 uM R-propranolol or 0.1 uM JW480 for 12 hours
Method: Transmission Electron Microscopy. […] Thin sections from these fixed cell blocks were visualized on Tecnai Spirit (ThermoFisher) TEM Microscope. Images captured were analyzed.
TEM evidence. […] ECs exposed to these drugs were fixed and the images were captured on a TEM.

HF-PH mice = assay: High-fat diet AKR/J HF-PH mouse model; type: in vivo; settings: 4 weeks, implanted mini osmotic pump, vs vehicle
Text: FIG. 14: Using a mouse model fed a high-fat diet, AKR/J mice develop obesity, insulin resistance, heart failure with preserved ejection fraction, and pulmonary hypertension and are designated as “HF-PH mice”.
Using a mouse model fed a high-fat diet (Research Diets, New Brunswick, NJ) for 16-20 weeks, AKR/J mice (Jackson Laboratories, Bar Harbor, ME) develop obesity, insulin resistance, heart failure with preserved ejection fraction, and pulmonary hypertension. (Meng, et al., 2017; Arwood, et al., 2019).

SREBP1 pathway = assay: RNA sequencing and pathway analysis of propranolol-treated ECs; type: cell-based, human; settings: ECs treated with propranolol
Text: SREBP1 is a key transcription factor that promotes lipid synthesis upon activation. Normally, SREBP1 protein is retained in the endoplasmic reticulum by high levels of cholesterol. When the cholesterol levels drop, SREBP1 protein gets translocated to the Golgi where it is cleaved, and the transcriptional activation portion of this protein gets translocated to the nucleus. Subsequently, SREBP1 activates a transcription program of genes involved in lipid synthesis. RNAseq data was generated to study mechanisms of propranolol-mediated PAEC mitophagy induction. […] ECs were treated with propranolol and the total RNA isolated from the cells were subjected to high through-put RNA sequencing.

[2] = target: T1, NCEH1-phosphatidylserine interactions (Homo sapiens, UniProt Q6PIU2); assay: Dot blot membrane strip assay of NCEH1 binding to phosphatidylserine; settings: purified NCEH1 protein on lipid membrane strip, in vitro
T1 sequence (Q6PIU2 1-408): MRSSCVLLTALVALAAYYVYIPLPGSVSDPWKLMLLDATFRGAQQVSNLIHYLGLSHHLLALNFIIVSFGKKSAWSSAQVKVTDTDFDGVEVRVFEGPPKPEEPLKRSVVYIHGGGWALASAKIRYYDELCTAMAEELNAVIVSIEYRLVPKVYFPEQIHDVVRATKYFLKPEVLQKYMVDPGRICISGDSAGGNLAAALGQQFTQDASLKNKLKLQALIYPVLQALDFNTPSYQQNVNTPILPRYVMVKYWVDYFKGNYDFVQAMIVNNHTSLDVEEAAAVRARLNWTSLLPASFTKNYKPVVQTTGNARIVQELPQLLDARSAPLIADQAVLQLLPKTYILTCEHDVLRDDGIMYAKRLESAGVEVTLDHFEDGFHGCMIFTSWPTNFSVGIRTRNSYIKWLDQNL
Method: Membranes having the specified compounds were incubated with purified NCEH1 protein and the membrane was developed with NCEH1 antibody. […] ECs were treated with papuamide and cell extracts were blotted with indicated antibodies.

SREBP1 [3] = assay: Immunofluorescence of SREBP1 nuclear accumulation; type: cell-based, human; settings: ECs, IF
Text: Immunofluorescence Microscopy. Cells were fixed with 4% Formaldehyde (Electron Microscopy Sciences, #C993M24) and permeabilized in the presence of 0.1% Triton X-100 (Sigma). Full-length SREBP1 was stained using mouse monoclonal antibody from Santa Cruz Biotechnology (Cat #sc-365513). Whereas nuclear SREBP1 was detected using antibody from Novus biological (Cat #NB100-2215). Mitophagy was confirmed by staining mitochondrial Tom20 and lysosomal marker LAMP1. Tom20 and LAMP1 antibodies were purchased from Cell Signaling (Cat #42406S and 15665S, respectively). Images were captured on an inverted fluorescent microscope (Leica).
NCEH1 knockdown experiments. NCEH1 was depleted using siRNA pool from Dharmacon or Lentiviral shRNA from Sigma. NCEH1 depletion was confirmed on a Western blot or by immunofluorescence assay.
Although pharmacological inhibition of NCEH1 promoted nuclear accumulation of SREBP1, genetic evidence further supports these observations. To this end, ECs were transfected with control or siNCEH1 siRNA and localization of SREBP1 or NCEH1 was captured on IF microscope.

[4] = tested on: pulmonary arterial endothelial cells (PAECs); assay: Western blot of mitochondrial marker TOM20 as measure of mitophagy; type: cell-based, human; settings: for Tom20 levels (mitophagy): ECs / PAEC
Text: Western blot. Cell lysates were resolved on a SDS PAGE pre-cast gel (Invitrogen) and resolved proteins were transferred on to a PVDF membrane for further detection of proteins using specific antibodies. Antibodies for SREBP1 were purchased from Santa Cruz Biotechnology (Cat #sc-365513) and Novus biological (Cat #NB100-2215). SCD antibody was purchased from Santa Cruz Biotechnology (Cat #sc-58420). Tom20 and LAMP1 antibodies were purchased from Cell Signaling (Cat #42406S and 15665S, respectively).
as §1

MCT-induced PAH in rats = assay: Rat MCT (monocrotaline) model of PAH; type: in vivo
Method: Rat MCT model of PAH. SD rats were given one dose of MCT injection to induce pulmonary hypertension. […] Rats were anesthetized and RVSP recorded.
Rats were injected with MCT to develop PAH in a well-established 4 week rodent model of the disease.

SREBP1-NCEH1 complex = target: T2, SREBP1-NCEH1 complex (Homo sapiens, UniProt Q6PIU2); assay: Immunoprecipitation of endogenous SREBP1-NCEH1 complex; type: cell-based; settings: ECs, vs vehicle
T2 construct: endogenous in cells; host or cells: cultured endothelial cells (ECs)
T2 sequence (Q6PIU2 1-408): T1 sequence (Q6PIU2 1-408)
Method: Immunoprecipitation Assay. In determining endogenous SREBP1-NCEH1 complex formation, cultured endothelial cells were treated with IP lysis buffer (Pierce Cat #87787). SREBP1 complex was captured using SREBP1 antibody from Santa Cruz Biotechnology (Cat #sc-365513) and resolved on a SDS PAGE. Complex formation with NCEH1 was detected by blotting with NCEH1 antibodies (Sigma Cat #HPA026888). To map the domain of SREBP1 that binds to NCEH1, HA tagged full-length SREBP1 or C-terminal regulatory domain alone were co-expressed along with Flag tagged NCEH1 in HEK293 cells. SREBP proteins were captured on HA antibodies (Cell Signaling) and blotted with Flag antibodies (Sigma).

[5] = tested on: myocardial infarction in mice; assay: Myocardial infarction (MI) mouse model, ligation of the left coronary artery; type: in vivo
Method: Ligation of the left coronary artery is a well-accepted mouse model of myocardial infarction (MI), associated with high mortality (>70% in lwk). […] Mice were treated with vehicle or 20 mg/kg JW480 (IP, n=6 males & 6 females) for five days and subjected to an MI.

[6] = tested on: laser-induced CNV in mice; assay: Laser-induced choroidal neovascularization (CNV) mouse model; type: in vivo; settings: 20 mg/kg for seven days
Method: The eye offers an opportune model to study vascular pathology. The laser-induced choroidal neovascularization (CNV)) mouse model is used to study pathologic exudative angiogenesis as a major contributor to age-related macular degeneration (AMD). To test the protective effects of NCEH1 blockade, CNV was induced in two groups of mice that are exposed to either vehicle or 20 mg/kg of JW480 for seven days (n=12 each). […] Cumulatively, these mice studies provide evidence for the therapeutic use of JW480 in pathological CV conditions.

[7] = donor (non-PAH control)-derived PAEC / normal control ECs

## CC(C)NCC(O)COc1cccc2ccccc12 (racemic) [propranolol]
PAEC / ECs
  mitophagy by immunofluorescence (Tom20/Lamp1): induce mitophagy; also recorded: Tom20 was mobilized to lysosome
PAEC / ECs; propranolol treated PAH patient-derived PAEC
  TOM20/Lamp1 co-staining: reduced TOM20/Lamp1 co-staining
SREBP1 [1]
  SCD (SREBP1 target) levels: increased; also recorded: elevated
  SREBP1 levels (non-cleaved; decrease indicates cleavage and activation): SREBP1 levels go down; also recorded: reduce SREBP1 levels
SREBP1 [1]; ECs
  NCEH1 levels: higher
SREBP1 [1]; PAEC, propranolol with fatostatin, last lane of western blot
  effect on inhibitor effects of fatostatin: able to rescue inhibitor effects of fatostatin
ECs
  mitophagy by TEM (bilipid membrane formation around mitochondria): promotes bilipid membrane formation around mitochondria more frequently than vehicle treated cells; also recorded: promoted mitophagy
HF-PH mice
  right ventricular systolic pressure: significantly decreased
SREBP1 pathway
  SREBP1 transcriptional targets and transcript levels (RNA-seq): activated transcriptional targets, as well as transcript levels of SREBP1
[2]
  NCEH1-phosphatidylserine interaction: disrupts NCEH1-phosphatidylserine interactions
SREBP1 [3]
  nuclear translocation of SREBP1: promoted nuclear translocation of SREBP1
[4]
  Tom20 levels (mitophagy): decreased Tom20 levels; also recorded: robustly induced mitophagy; also recorded: TOM20 levels go down; also recorded: lower
[4]; PAH patient-derived PAEC
  mitophagy induction (TOM20 level): reduced TOM20 levels; also recorded: consistently decreased Tom20 levels in PAH patient cells much more robustly than in normal cells
[4]; [7]
  mitophagy induction (TOM20 level): reduced TOM20 across all cells
MCT-induced PAH in rats; 10 mg/kg IP for the last 2 of 4 weeks
  right ventricle systolic pressures (RVSP): significantly reduced
MCT-induced PAH in rats; 10 mg/kg IP, lung sections H&E
  MCT-induced arterial wall thickness: negated MCT-induced arterial wall thickness
SREBP1-NCEH1 complex; anti-SREBP1 antibody beads
  full length SREBP1 immunoprecipitated: less full length SREBP1 immunoprecipitated
SREBP1-NCEH1 complex; blotted with NCEH1 antibody
  NCEH1 complexed with full length SREBP1: reduced NCEH1 complexed with full length SREBP1

## N#CC(C#N)=NNc1cccc(Cl)c1 [CCCP, carbonyl cyanide m-chlorophenylhydrazone]
[4]; PAH patient-derived PAEC
  mitophagy induction (TOM20 level): not observed; also recorded: failed to promote mitophagy
[4]; [7]
  mitophagy induction (TOM20 level): induced mitophagy; also recorded: promotes mitophagy

## CC(C)c1ccccc1OC(=O)NCCc1ccc2ccccc2c1 [JW480]
PAEC / ECs
  mitophagy by immunofluorescence (Tom20/Lamp1): Tom20 was mobilized to lysosome
SREBP1 [1]
  SCD (SREBP1 target) levels: elevated
  SREBP1 levels (non-cleaved; decrease indicates cleavage and activation): reduce SREBP1 levels
SREBP1 [1]; listed as NCEH1
  SCD (SREBP1 target) levels: sufficient to activate SREBP1 target SCD
SREBP1 [1]; ECs
  NCEH1 levels: higher
ECs
  mitophagy by TEM (bilipid membrane formation around mitochondria): promoted mitophagy
[5]; JW480-treated mice
  intracellular lipid droplets (TEM): increased intracellular lipid droplets
[5]; mice, 20 mg/kg IP for five days before MI
  survival after MI: significantly improved survival
[2]
  NCEH1-phosphatidylserine interaction: disrupts NCEH1-phosphatidylserine interactions
SREBP1 [3]
  nuclear translocation of SREBP1: promoted nuclear translocation of SREBP1
[4]
  Tom20 levels (mitophagy): lower
[4]; listed as NCEH1
  Tom20 levels (mitophagy): reduced the levels of Tom20
[6]
  pathologic CNV: inhibited pathologic CNV
  retinal vessel leakage: significantly reduced retinal vessel leakage

## CCN(CC)CCO[C@H]1CC[C@@]2(C)C(=CC[C@@H]3[C@@H]2CC[C@]2(C)C(=O)CC[C@@H]32)C1.Cl [U18666A]
PAEC / ECs
  mitophagy by immunofluorescence (Tom20/Lamp1): induce mitophagy

## COCCc1ccc(OCC(O)CNC(C)C)cc1 (stereo not drawn) [metoprolol]
[4]
  Tom20 levels (mitophagy): failed to promote mitophagy

## OC(CNCC(O)C1CCc2cc(F)ccc2O1)C1CCc2cc(F)ccc2O1 (stereo not drawn) [nebivolol]
[4]
  Tom20 levels (mitophagy): failed to promote mitophagy

## papuamide
SREBP1 [1]; ECs, cell extracts blotted
  activation of non-canonical SREBP1 pathway: activate a non-canonical SREBP1 pathway
SREBP1 [3]
  nuclear translocation of SREBP1: promotes nuclear translocation of SREBP1
